Laboratory results as given in ChEMBL document CHEMBL1201862, “PubChem BioAssay data set” (2004).
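1) Cells in 96-well plates. 2) Compound, 48 h, 5 concentrations. 3) Linear interpolation between surrounding doses. 4) Unreached endpoint = highest concentration. Abbreviation: GI50, concentration required for 50% inhibition of growth.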 The source made the active and inactive calls. Cut-off read from the data, not from the text of the source: active = GI50 up to about 1.1 µM and inactive = higher.

Legend:
Assay in all cases: NCI-60 cell line screen, 48 h
[1] = tested on: A498
[2] = tested on: COLO 205
[3] = tested on: HCC 2998
[4] = tested on: HOP-92
[5] = tested on: IGROV-1
[6] = tested on: K562
[7] = tested on: KM12
[8] = tested on: M14
[9] = tested on: MCF7
[10] = tested on: NCI-H226
[11] = tested on: NCI-H522
[12] = tested on: NCI/ADR-RES
[13] = tested on: OVCAR-4
[14] = tested on: OVCAR-5
[15] = tested on: SF-268
[16] = tested on: SK-MEL-28
[17] = tested on: SK-MEL-5
[18] = tested on: SK-OV-3
[19] = tested on: UACC-257
[20] = tested on: SF-539

Measured: GI50

Cc1nnc(N)nc1C/C=C/C(C)Sc1ccc(Cl)cc1 (stereo unspecified)
inactive: [1] 6.32 µM | [2] 19.1 µM | [3] 14.4 µM | [4] 11.4 µM | [5] 3.41 µM | [6] 9.73 µM | [7] 4.7 µM | [8] 7.69 µM | [9] 5.28 µM | [10] 2.04 µM | [11] 4 µM | [12] 9.79 µM | [13] 10.1 µM | [14] 10.9 µM | [15] 3.78 µM | [16] 12.3 µM | [17] 6.08 µM | [18] 4.52 µM | [19] 10.8 µM

C=CCC1(O)c2cccc(O)c2C(=O)c2c(O)cccc21
inactive: [1] 29 µM | [3] 17.5 µM | [4] 28.1 µM | [5] 45.9 µM | [6] 21 µM | [7] 24.4 µM | [8] 20.8 µM | [9] 30.1 µM | [10] 45.7 µM | [11] 23.8 µM | [12] 18.9 µM | [13] 28.4 µM | [14] 35.2 µM | [15] 32.7 µM | [20] 57.8 µM | [16] 31.7 µM | [17] 29.4 µM | [19] 23 µM

COC(=O)c1c([N+](=O)[O-])ncn1[C@H]1OC[C@@H](OC(C)=O)[C@@H](OC(C)=O)[C@@H]1OC(C)=O
inactive: [1] > 100 µM | [2] > 100 µM | [3] > 100 µM | [4] > 100 µM | [5] > 100 µM | [6] > 100 µM | [7] > 100 µM | [8] > 100 µM | [9] > 100 µM | [10] > 100 µM | [11] > 100 µM | [12] > 100 µM | [13] > 100 µM | [14] > 100 µM | [15] > 100 µM | [20] > 100 µM | [16] > 100 µM | [18] > 100 µM | [19] > 100 µM

O=C1NC(=O)C23C(=O)NC(=O)C12C1C=CC3CC1 (stereo unspecified)
inactive: [1] > 10 µM | [2] > 10 µM | [3] > 10 µM | [4] > 10 µM | [5] > 10 µM | [6] > 10 µM | [7] > 10 µM | [8] > 10 µM | [9] > 10 µM | [10] > 10 µM | [11] > 10 µM | [12] > 10 µM | [13] > 10 µM | [15] > 10 µM | [20] > 10 µM | [16] > 10 µM | [17] > 10 µM | [18] > 10 µM | [19] > 10 µM

CC(=O)O[C@H]1CC(C)(C)C(=C=C/C(C)=C/C=C/C=C/C=C(C)/C=C2C=C(/C=C/[C@@]34O[C@]3(C)C[C@@H](O)CC4(C)C)C(=O)O/2)[C@](C)(O)C1
inactive: [1] 24.7 µM | [2] 19.6 µM | [3] 20.7 µM | [4] 12.6 µM | [5] 2.88 µM | [6] 10 µM | [7] 5.4 µM | [8] 11.7 µM | [9] 3.81 µM | [10] 1.62 µM | [11] 3.99 µM | [12] 5.93 µM | [13] 4.75 µM | [14] 19.1 µM | [15] 15 µM | [20] 17.8 µM | [16] 23.6 µM | [17] 8.43 µM | [19] 12.8 µM

COc1ccc(NC(=O)C(=O)Cc2nc3ccc(C(=O)c4ccccc4)cc3nc2O)c([N+](=O)[O-])c1
inactive: [1] 16.6 µM | [2] 16 µM | [3] 29.8 µM | [4] 10.8 µM | [5] 17.6 µM | [7] 6.93 µM | [8] 35.6 µM | [9] 41.6 µM | [10] 11.5 µM | [11] 12.8 µM | [12] 11.5 µM | [13] 43.7 µM | [14] > 100 µM | [15] 34.8 µM | [20] 33 µM | [16] 25.8 µM | [17] 22.6 µM | [18] 52 µM | [19] 22.6 µM

CCOc1ccc2nc(NC(=O)C(=O)C(c3cnc4ccccc4n3)[N+](=O)[O-])sc2c1 (stereo unspecified)
inactive: [1] > 100 µM | [3] > 100 µM | [4] > 100 µM | [5] 41.4 µM | [6] 98.2 µM | [7] > 100 µM | [8] > 100 µM | [9] > 100 µM | [10] > 100 µM | [11] 45.4 µM | [12] > 100 µM | [13] > 100 µM | [14] > 100 µM | [15] > 100 µM | [20] > 100 µM | [17] > 100 µM | [18] > 100 µM | [19] > 100 µM
